Data published in patent US10335503B2, “Compound that specifically binds to AMPA receptor” (Public University Corporation Yokohama City University, priority 2015, dated 2019).

Assays:
Details in all cases: K-2 at 1 × 10^−7 mol/L
Serotonin transporter = Serotonin transporter (Homo sapiens, UniProt P31645); test: Receptor binding panel: Serotonin transporter
[1] = test system: Glutamate (NMDA agonist site); test: Receptor binding panel: Glutamate (NMDA agonist site)
Dopamine D1 = Dopamine D1 (Homo sapiens, UniProt P21728); test: Receptor binding panel: Dopamine D1
Serotonin 5HT1A = Serotonin 5HT1A (Homo sapiens, UniProt P08908); test: Receptor binding panel: Serotonin 5HT1A
Neurokinin NK1 = Neurokinin NK1 (Homo sapiens, UniProt P25103); test: Receptor binding panel: Neurokinin NK1
Bradykinin B2 = Bradykinin B2 (Homo sapiens, UniProt P30411); test: Receptor binding panel: Bradykinin B2
Serotonin 5HT3 = Serotonin 5HT3 (Homo sapiens, UniProt P46098); test: Receptor binding panel: Serotonin 5HT3
PAF = PAF (Homo sapiens, UniProt P25105); test: Receptor binding panel: PAF
Na channel site 2 = test: Receptor binding panel: Na channel site 2
Glutamate (AMPA) = test: Receptor binding panel: Glutamate (AMPA)
Muscarinic M1 = Muscarinic M1 (Homo sapiens, UniProt P11229); test: Receptor binding panel: Muscarinic M1
[2] = test system: Glutamate (NMDA glycine site); test: Receptor binding panel: Glutamate (NMDA glycine site)
Angiotensin AT2 = Angiotensin AT2 (Homo sapiens, UniProt P50052); test: Receptor binding panel: Angiotensin AT2
Angiotensin AT1 = Angiotensin AT1 (Homo sapiens, UniProt P30556); test: Receptor binding panel: Angiotensin AT1
Muscarinic M3 = Muscarinic M3 (Homo sapiens, UniProt P20309); test: Receptor binding panel: Muscarinic M3
Muscarinic M2 = Muscarinic M2 (Homo sapiens, UniProt P08172); test: Receptor binding panel: Muscarinic M2
Sigma σ2 = Sigma σ2 (Homo sapiens, UniProt Q5BJF2); test: Receptor binding panel: Sigma σ2
GABA B = GABA B (Homo sapiens, UniProt Q9UBS5); test: Receptor binding panel: GABA B
Histamine H3 = Histamine H3 (Homo sapiens, UniProt Q9Y5N1); test: Receptor binding panel: Histamine H3
GABA A (Agonist site) = test: Receptor binding panel: GABA A (Agonist site)
α2B-Adrenergic = α2B-Adrenergic (Homo sapiens, UniProt P18089); test: Receptor binding panel: α2B-Adrenergic
[3] = test system: Glutamate (NMDA phencyclidine site); test: Receptor binding panel: Glutamate (NMDA phencyclidine site)
[4] = biological target: Norepinephrine transporter (Homo sapiens, UniProt P23975); test: Receptor binding panel: Norepinephrine transporter
Leukotriene D4 = test: Receptor binding panel: Leukotriene D4
Sigma σ1 = Sigma σ1 (Homo sapiens, UniProt Q99720); test: Receptor binding panel: Sigma σ1
Histamine H2 = Histamine H2 (Homo sapiens, UniProt P25021); test: Receptor binding panel: Histamine H2
Androgen = Androgen (Homo sapiens, UniProt P10275); test: Receptor binding panel: Androgen
Vasopressin V1 = Vasopressin V1 (Homo sapiens, UniProt P37288); test: Receptor binding panel: Vasopressin V1
Dopamine D2 short = Dopamine D2 short (Homo sapiens, UniProt P14416); test: Receptor binding panel: Dopamine D2 short
Serotonin 5HT2A = Serotonin 5HT2A (Homo sapiens, UniProt P28223); test: Receptor binding panel: Serotonin 5HT2A
Nicotinic = test: Receptor binding panel: Nicotinic; set-up: species or system Human
Endothelin ETB = Endothelin ETB (Homo sapiens, UniProt P24530); test: Receptor binding panel: Endothelin ETB
Histamine H1 = Histamine H1 (Homo sapiens, UniProt P35367); test: Receptor binding panel: Histamine H1
VIP 1 = VIP 1 (Homo sapiens, UniProt P32241); test: Receptor binding panel: VIP 1
Estrogen = test: Receptor binding panel: Estrogen
Leukotriene B4 = test: Receptor binding panel: Leukotriene B4
Melatonin MT1 = Melatonin MT1 (Homo sapiens, UniProt P48039); test: Receptor binding panel: Melatonin MT1
Neurokinin NK2 = Neurokinin NK2 (Homo sapiens, UniProt P21452); test: Receptor binding panel: Neurokinin NK2
GABA A (BZ central) = test: Receptor binding panel: GABA A (BZ central)
Adenosine A1 = Adenosine A1 (Homo sapiens, UniProt P30542); test: Receptor binding panel: Adenosine A1
Dopamine transporter = Dopamine transporter (Homo sapiens, UniProt Q01959); test: Receptor binding panel: Dopamine transporter
β2-Adrenergic = β2-Adrenergic (Homo sapiens, UniProt P07550); test: Receptor binding panel: β2-Adrenergic
β1-Adrenergic = β1-Adrenergic (Homo sapiens, UniProt P08588); test: Receptor binding panel: β1-Adrenergic

Chain of Vasopressin V1 (P37288 whole entry): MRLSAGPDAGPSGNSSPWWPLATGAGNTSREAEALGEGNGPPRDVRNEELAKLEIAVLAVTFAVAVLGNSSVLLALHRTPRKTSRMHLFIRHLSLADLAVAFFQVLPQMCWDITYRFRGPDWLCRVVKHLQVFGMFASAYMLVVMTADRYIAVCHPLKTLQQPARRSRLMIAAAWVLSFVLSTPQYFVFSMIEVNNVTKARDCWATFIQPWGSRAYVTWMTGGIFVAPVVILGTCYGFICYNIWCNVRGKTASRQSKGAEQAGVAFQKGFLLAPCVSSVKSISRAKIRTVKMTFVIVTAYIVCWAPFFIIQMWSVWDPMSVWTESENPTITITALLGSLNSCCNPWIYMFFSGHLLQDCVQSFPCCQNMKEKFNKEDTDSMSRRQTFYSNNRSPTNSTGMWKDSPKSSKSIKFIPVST
Chain of β2-Adrenergic (P07550 whole entry): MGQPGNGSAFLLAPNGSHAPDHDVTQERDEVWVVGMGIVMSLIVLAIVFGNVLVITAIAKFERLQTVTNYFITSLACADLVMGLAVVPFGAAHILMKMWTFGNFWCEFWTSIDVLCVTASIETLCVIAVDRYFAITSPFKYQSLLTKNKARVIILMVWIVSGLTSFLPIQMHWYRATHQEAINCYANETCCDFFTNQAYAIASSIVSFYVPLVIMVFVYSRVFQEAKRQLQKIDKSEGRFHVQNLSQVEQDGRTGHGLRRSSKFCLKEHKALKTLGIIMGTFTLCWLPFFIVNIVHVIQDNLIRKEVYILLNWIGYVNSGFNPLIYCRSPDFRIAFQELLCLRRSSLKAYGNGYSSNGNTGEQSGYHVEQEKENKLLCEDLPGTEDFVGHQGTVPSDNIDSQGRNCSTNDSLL
Chain of Angiotensin AT2 (P50052 whole entry): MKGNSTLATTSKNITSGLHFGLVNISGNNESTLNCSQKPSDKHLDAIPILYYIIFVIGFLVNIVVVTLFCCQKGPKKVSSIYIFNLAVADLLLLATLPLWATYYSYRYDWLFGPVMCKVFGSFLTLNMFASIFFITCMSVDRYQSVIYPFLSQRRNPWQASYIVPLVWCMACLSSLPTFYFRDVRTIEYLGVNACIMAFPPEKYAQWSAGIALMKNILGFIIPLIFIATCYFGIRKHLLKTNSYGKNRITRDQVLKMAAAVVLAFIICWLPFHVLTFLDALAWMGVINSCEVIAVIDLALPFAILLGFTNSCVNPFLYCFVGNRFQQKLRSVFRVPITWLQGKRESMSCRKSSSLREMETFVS
Chain of Muscarinic M3 (P20309 whole entry): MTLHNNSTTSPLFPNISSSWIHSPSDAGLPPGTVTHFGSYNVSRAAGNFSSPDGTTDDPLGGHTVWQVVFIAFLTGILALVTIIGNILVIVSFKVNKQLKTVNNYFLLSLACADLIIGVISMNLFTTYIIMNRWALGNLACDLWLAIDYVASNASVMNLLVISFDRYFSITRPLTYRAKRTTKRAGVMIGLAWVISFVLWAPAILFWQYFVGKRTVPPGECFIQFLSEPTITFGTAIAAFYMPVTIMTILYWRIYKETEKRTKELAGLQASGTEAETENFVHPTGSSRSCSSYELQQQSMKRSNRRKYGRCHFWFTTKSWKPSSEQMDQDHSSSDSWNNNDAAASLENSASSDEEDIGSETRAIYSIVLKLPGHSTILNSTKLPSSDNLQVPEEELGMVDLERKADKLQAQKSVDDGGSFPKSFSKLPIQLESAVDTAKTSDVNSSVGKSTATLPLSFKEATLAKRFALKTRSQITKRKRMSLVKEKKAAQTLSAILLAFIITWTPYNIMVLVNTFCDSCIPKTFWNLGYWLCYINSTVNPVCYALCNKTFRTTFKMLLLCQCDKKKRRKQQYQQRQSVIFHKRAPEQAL
Chain of Histamine H3 (Q9Y5N1 whole entry): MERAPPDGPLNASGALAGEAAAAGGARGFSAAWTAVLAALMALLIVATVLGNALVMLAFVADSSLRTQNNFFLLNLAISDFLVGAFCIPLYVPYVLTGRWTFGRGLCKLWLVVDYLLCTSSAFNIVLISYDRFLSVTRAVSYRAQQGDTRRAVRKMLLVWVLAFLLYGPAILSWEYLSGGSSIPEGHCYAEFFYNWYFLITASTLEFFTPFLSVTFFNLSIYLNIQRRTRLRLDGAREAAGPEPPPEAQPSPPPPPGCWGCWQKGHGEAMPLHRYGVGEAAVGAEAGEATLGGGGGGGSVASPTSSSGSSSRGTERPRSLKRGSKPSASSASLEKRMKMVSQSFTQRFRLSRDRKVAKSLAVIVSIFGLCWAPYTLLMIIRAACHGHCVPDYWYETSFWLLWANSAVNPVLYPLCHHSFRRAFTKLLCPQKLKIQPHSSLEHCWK
Chain of Sigma σ1 (Q99720 whole entry): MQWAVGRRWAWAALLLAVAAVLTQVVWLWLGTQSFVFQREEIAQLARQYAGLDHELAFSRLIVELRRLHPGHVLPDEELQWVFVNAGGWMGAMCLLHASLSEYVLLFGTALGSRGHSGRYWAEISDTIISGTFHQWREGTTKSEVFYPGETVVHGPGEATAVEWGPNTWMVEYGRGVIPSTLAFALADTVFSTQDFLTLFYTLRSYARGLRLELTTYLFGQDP
Chain of Histamine H1 (P35367 whole entry): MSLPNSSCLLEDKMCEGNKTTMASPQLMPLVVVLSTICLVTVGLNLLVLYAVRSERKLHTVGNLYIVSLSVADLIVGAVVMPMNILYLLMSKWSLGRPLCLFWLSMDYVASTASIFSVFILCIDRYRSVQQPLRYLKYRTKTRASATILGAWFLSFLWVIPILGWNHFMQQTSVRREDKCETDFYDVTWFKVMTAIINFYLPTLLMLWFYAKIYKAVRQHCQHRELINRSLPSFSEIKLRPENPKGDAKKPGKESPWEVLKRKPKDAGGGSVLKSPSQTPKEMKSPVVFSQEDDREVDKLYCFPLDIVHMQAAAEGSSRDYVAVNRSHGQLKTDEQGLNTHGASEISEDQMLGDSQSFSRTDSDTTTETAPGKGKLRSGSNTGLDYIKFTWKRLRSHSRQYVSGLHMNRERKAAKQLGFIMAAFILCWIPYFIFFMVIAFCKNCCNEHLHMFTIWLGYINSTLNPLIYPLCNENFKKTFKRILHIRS
Chain of Dopamine D1 (P21728 whole entry): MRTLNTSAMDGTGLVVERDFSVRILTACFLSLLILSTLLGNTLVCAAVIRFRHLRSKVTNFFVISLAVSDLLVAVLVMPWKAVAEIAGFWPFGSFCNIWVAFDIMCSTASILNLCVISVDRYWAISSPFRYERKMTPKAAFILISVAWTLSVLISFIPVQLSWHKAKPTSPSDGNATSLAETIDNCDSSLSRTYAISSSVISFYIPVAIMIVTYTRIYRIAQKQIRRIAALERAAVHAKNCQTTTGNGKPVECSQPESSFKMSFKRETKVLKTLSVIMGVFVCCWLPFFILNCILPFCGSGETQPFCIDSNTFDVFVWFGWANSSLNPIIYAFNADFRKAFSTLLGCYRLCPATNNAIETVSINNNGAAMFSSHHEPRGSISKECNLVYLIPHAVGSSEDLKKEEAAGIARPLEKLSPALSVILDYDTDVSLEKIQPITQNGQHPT
Chain of Norepinephrine transporter (P23975 whole entry): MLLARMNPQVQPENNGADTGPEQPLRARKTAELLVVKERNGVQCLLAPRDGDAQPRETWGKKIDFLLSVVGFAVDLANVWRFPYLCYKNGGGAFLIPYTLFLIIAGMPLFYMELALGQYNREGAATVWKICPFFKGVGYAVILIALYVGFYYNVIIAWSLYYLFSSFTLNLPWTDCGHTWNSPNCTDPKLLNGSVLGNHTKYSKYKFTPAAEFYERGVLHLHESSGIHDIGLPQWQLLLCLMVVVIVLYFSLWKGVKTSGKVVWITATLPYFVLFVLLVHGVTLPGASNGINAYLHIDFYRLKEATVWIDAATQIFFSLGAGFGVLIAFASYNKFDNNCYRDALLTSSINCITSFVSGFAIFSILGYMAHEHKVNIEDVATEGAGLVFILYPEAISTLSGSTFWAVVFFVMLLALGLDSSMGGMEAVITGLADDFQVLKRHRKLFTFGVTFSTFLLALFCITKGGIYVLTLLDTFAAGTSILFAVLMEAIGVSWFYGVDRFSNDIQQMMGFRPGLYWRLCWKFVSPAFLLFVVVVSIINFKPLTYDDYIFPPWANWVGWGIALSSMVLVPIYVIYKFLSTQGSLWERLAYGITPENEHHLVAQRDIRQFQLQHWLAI
Chain of Dopamine D2 short (P14416 1-414 isoform P14416-2): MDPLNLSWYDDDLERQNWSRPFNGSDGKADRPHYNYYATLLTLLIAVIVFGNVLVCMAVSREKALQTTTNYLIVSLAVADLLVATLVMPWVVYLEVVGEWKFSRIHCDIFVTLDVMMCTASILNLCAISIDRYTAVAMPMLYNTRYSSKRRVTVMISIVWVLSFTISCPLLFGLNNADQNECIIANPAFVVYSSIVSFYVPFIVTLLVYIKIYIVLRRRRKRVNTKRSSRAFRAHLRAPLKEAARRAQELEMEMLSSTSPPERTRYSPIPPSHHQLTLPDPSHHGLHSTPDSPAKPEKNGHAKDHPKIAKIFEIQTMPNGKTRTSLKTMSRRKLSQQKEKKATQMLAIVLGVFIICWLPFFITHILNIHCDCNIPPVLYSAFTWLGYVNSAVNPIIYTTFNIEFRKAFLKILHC
Chain of PAF (P25105 whole entry): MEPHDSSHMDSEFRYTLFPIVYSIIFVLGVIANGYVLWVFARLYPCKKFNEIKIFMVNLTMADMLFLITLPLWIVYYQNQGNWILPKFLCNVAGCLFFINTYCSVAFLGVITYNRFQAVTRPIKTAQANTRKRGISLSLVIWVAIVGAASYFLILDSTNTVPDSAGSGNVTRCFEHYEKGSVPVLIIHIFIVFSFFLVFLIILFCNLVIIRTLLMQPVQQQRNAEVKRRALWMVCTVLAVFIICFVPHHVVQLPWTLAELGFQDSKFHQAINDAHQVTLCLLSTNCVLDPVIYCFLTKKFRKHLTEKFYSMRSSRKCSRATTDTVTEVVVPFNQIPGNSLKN
Chain of Sigma σ2 (Q5BJF2 whole entry): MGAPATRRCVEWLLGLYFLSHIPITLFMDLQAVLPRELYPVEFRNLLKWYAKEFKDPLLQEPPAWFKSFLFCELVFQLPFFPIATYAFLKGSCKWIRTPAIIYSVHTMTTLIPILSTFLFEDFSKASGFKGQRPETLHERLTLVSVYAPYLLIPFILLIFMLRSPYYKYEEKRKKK

SMILES: CN(CCSc1cc(F)c(OCC(N)=O)c(F)c1)S(=O)(=O)c1ccccc1 [K-2, {4-[2-(benzenesulfonyl-methyl-amino)-ethylsulfanil]-2,6-difluoro-phenoxy}-acetamide]
- inhibition at 0.1 µM (Serotonin transporter): 0.17%
- Inhibition (%) [1]: 0.57%
- inhibition at 0.1 µM (Dopamine D1): 10.2%
- inhibition at 0.1 µM (Serotonin 5HT1A): 1.98%
- inhibition at 0.1 µM (Neurokinin NK1): 0%
- inhibition at 0.1 µM (Bradykinin B2): 10.3%
- inhibition at 0.1 µM (Serotonin 5HT3): 1.57%
- inhibition at 0.1 µM (PAF): 0%
- Inhibition (%) (Na channel site 2): 11.15%
- Inhibition (%) (Glutamate (AMPA)): 1.74%
- inhibition at 0.1 µM (Muscarinic M1): 2.24%
- Inhibition (%) [2]: 0.64%
- inhibition at 0.1 µM (Angiotensin AT2): 1.05%
- inhibition at 0.1 µM (Angiotensin AT1): 1.52%
- inhibition at 0.1 µM (Muscarinic M3): 5.99%
- inhibition at 0.1 µM (Muscarinic M2): 0.51%
- inhibition at 0.1 µM (Sigma σ2): 4.07%
- inhibition at 0.1 µM (GABA B): 1.9%
- inhibition at 0.1 µM (Histamine H3): 0%
- Inhibition (%) (GABA A (Agonist site)): 0.38%
- inhibition at 0.1 µM (α2B-Adrenergic): 5.83%
- Inhibition (%) [3]: 5.02%
- inhibition at 0.1 µM [4]: 0%
- Inhibition (%) (Leukotriene D4): 0.16%
- inhibition at 0.1 µM (Sigma σ1): 2.88%
- inhibition at 0.1 µM (Histamine H2): 0.79%
- inhibition at 0.1 µM (Androgen): 0.57%
- inhibition at 0.1 µM (Vasopressin V1): 4.76%
- inhibition at 0.1 µM (Dopamine D2 short): 5.33%
- inhibition at 0.1 µM (Serotonin 5HT2A): 9.32%
- Inhibition (%) (Nicotinic): 7.17%
- inhibition at 0.1 µM (Endothelin ETB): 0%
- inhibition at 0.1 µM (Histamine H1): 6.53%
- inhibition at 0.1 µM (VIP 1): 0%
- Inhibition (%) (Estrogen): 2.83%
- Inhibition (%) (Leukotriene B4): 0.00%
- inhibition at 0.1 µM (Melatonin MT1): 0.11%
- inhibition at 0.1 µM (Neurokinin NK2): 0.61%
- Inhibition (%) (GABA A (BZ central)): 1.54%
- inhibition at 0.1 µM (Adenosine A1): 5.29%
- inhibition at 0.1 µM (Dopamine transporter): 0.29%
- inhibition at 0.1 µM (β2-Adrenergic): 3.39%
- inhibition at 0.1 µM (β1-Adrenergic): 0.82%
